The values below come from ChEMBL document CHEMBL3714747, “Imidazothiadiazole and imidazopyrazine derivatives as protease activated receptor 4 (par4) inhibitors for treating platelet aggregation” (2015).

As a reminder, the EC50 is the concentration giving half of the maximal effect. What is called inhibition in vivo is the relative decrease from the control value, in per cent.

Molecules are shown by their SMILES.

In experiment [1] the target is T1, Proteinase-activated receptor 4 (Homo sapiens, UniProt Q96RI0).
T1 sequence (Q96RI0 whole entry): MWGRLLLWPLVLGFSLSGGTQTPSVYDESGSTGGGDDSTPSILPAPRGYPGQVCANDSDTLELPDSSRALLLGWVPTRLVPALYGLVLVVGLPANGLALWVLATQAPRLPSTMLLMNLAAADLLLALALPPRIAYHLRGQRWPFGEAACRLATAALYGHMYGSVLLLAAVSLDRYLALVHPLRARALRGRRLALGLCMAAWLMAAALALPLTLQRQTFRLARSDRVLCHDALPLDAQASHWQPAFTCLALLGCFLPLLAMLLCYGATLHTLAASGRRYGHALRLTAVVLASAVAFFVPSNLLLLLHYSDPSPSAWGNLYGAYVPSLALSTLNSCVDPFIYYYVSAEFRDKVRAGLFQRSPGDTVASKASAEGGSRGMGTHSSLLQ
Put plainly: Antagonist activity against human PAR4 expressed in HEK293 cells assessed as reduction in H-Ala-Phe(4-F)-Pro-Gly-Trp-Leu-Val-Lys-Asn-Gly-NH2-induced intracellular calcium mobilization incubated for 30 mins by FLIPR assay. Format: functional, cell-based. A general note: Calcium flux is commonly read through the fluorescence of an indicator in the cells.

The subject of experiment [2] is Cynomolgus monkey. Put plainly: (§1) Antithrombotic activity in cynomolgus monkey electrolytic injury-induced carotid artery thrombosis model assessed as reduction in thrmbosis-induced occlusion at […], po dosed 1 to 2 hrs before test. Conditions: Macaca fascicularis. In kind it is functional.
The subject of experiment [3] is Cynomolgus monkey. Put plainly: Antithrombotic activity in cynomolgus monkey electrolytic injury-induced carotid artery thrombosis model assessed as reduction in thrmbosis-induced occlusion at 0.1 mg/kg, po dosed 1 to 2 hrs before test. In kind it is functional. Conditions: Macaca fascicularis.
Experiment [4] deals with Cynomolgus monkey. Put plainly: Antithrombotic activity in cynomolgus monkey electrolytic injury-induced carotid artery thrombosis model assessed as reduction in thrmbosis-induced occlusion at 0.02 mg/kg, po dosed 1 to 2 hrs before test. To be noted: Macaca fascicularis. In kind it is functional.
The test system of experiment [5] is Cynomolgus monkey. Put plainly: Antithrombotic activity in cynomolgus monkey electrolytic injury-induced carotid artery thrombosis model assessed as reduction in thrmbosis-induced occlusion at 0.5 mg/kg, po dosed 1 to 2 hrs before test. In kind it is functional. Conditions: Macaca fascicularis.
For experiment [6], the system named is Cynomolgus monkey. The description is as §1. Format: functional. To be noted: Macaca fascicularis. This is another data set of the same source.

As for `COc1cc(OCc2csc(N3CCN(c4cnccn4)CC3)n2)c2cc(-c3cn4nc(C)ccc4n3)oc2c1`, the EC50 in experiment [1] was 0.42 nM.
Take `COc1cc(OCc2csc(-c3ccccc3)n2)c2cc(-c3cn4nc(OC)sc4n3)oc2c1`: the inhibition in vivo at […] is 46% with Cynomolgus monkey [2] and 51% in the experiment on Cynomolgus monkey [6]. In the experiment on Cynomolgus monkey [3], the inhibition in vivo at 0.1 mg/kg came out at 24%. The inhibition in vivo at 0.02 mg/kg in the experiment with Cynomolgus monkey [4] came to 19%. The inhibition in vivo at 0.5 mg/kg in the experiment with Cynomolgus monkey [5] turned out to be 47%.
